Results on nine molecules are retold here after US11691989B2, “Macrocyclic indoles as Mcl-1 inhibitors” (ASCENTAGE PHARMA (SUZHOU) CO., LTD., priority 2018, dated 2023).

Converted amounts (≈) assume the structure as drawn. Where two headings read alike, the source gives them in different places. Bounds are passed on as bounds.

For data set [1], the target named is Mcl-1 protein (residues 171-323) (Homo sapiens (Human), UniProt Q07820). Kind of data set: Inhibition of Mcl-1 by fluorescence polarization (FP) competitive binding assay with FAM-Bid tracer. Particulars: 2 nM FAM-Bid, 20 nM Mcl-1, 30 min, read-out: Mc1-1 (FP). The method, boiled down:
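Competitive FP binding of compounds against FAM-Bid tracer (final 2 nM) on Mcl-1 (final 20 nM) in PBS with 0.01% BGG and 0.01% Triton X-100, 5% final DMSO.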
On the technique in general: Fluorescence polarisation rises when a labelled molecule tumbles more slowly, as on binding a larger partner.

Data set [2] can be described thus: Microsome clearance assay, human. The class given is in vitro ADME. Particulars: 0.5 mg/ml protein, 1 mM NADPH, 60 minutes; for Human Liver Microsome Clint (μL/min/mg protein): human liver microsomes, 5 μM; for microsomal CLint at 5 μM: human, pooled liver microsomes, pH 7.4, human liver microsomes, read-out: Human Liver Microsome Clint (μL/min/mg protein). The essentials:
(§1)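 Pooled liver microsomes (human, male Wistar rat, male CD-1 mouse) at 0.5 mg/ml protein in 0.1M sodium phosphate pH 7.4 with 5 μM test compound and 1 mM NADPH, incubated 60 minutes. Reactions quenched in ice-cold methanol; supernatant analysed by LC/MS/MS (electrospray).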
For orientation: Microsomes from liver hold many membrane-bound enzymes, among them those of drug oxidation.

A further data set has as its system MV-4-11 cells. Kind of data set: MV-4-11 cell viability assay, CCK-8. The class given is cell-based. How it is done:
MV-4-11 cells were obtained from American Type Culture Collection (ATCC). […]
The effect of representative Compounds of the Disclosure on cell viability was determined using Cell Counting Kit-8 (CCK-8) assay according to the manufacturer's instructions. 95 μL of MV-4-11 cell suspension (20000 cells/well) in culture medium were seeded into 96-well plates and cultured 4 hrs. Each tested compound was serially diluted in DMSO, then 5 μL of the compound or DMSO was diluted in 95 μL medium once more. At last, 5 μL of the compound dilution was added to the corresponding well of the cell plate. After the addition of the tested compound, the cells were incubated at 37° C. in an atmosphere of 5% CO2 for 24 hrs. At the end, 10 μL of CCK-8 solution was added to each well of the plate and incubated for 1-4 hrs. The plates were read at 450 nm on the microplate reader (BioTek Synergy 1MF). The readings were normalized to the vehicle cells, and the IC50 was calculated by nonlinear regression analysis using GraphPad Prism 6 software.

Data set [3] in a line: Microsome clearance assay, mouse. The class given is in vitro ADME. Particulars: 0.5 mg/ml protein, 1 mM NADPH, 60 minutes; for Mouse Liver Microsome Clint (μL/min/mg protein): mouse liver microsomes, 5 μM; for microsomal CLint at 5 μM: male, CD-1, mouse, pooled liver microsomes, pH 7.4, mouse liver microsomes, read-out: Mouse Liver Microsome Clint (μL/min/mg protein). The essentials: as §1

The nature of data set [4]: Microsome clearance assay, rat. The class given is in vitro ADME. The note with it: 0.5 mg/ml protein, 1 mM NADPH, 60 minutes; for Rat Liver Microsome Clint (μL/min/mg protein): rat liver microsomes, 5 μM; for microsomal CLint at 5 μM: male, Wister, rat, pooled liver microsomes, pH 7.4, rat liver microsomes, read-out: Rat Liver Microsome Clint (μL/min/mg protein). The essentials: as §1

The test system of a further data set is OPM-2 cells. Kind of data set: Cell viability assay (OPM-2 cells), CCK-8. The class given is cell-based. Particulars: 5% FBS. The method, boiled down: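 OPM-2 myeloma cells (20000/well) incubated with serially diluted compound for 24 h at 37 °C, 5% CO2. Viability read by CCK-8 (4 h) absorbance at 450 nm, normalised to vehicle; IC50 from nonlinear regression.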

In a further data set the test system is NCI-H929 cells. Kind of data set: Cell viability assay (NCI-H929 cells), CCK-8. The class given is cell-based. Particulars: 5% FBS. The method, boiled down: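 NCI-H929 cells (20000/well) exposed to serially diluted compounds for 24 h at 37 °C, 5% CO2. Viability by CCK-8, absorbance at 450 nm after 1-4 h, normalized to vehicle-treated cells. IC50 by nonlinear regression.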

A short description of data set [5]: Kinetic solubility assay in PBS buffer. The class given is physicochemical. Particulars: for solubility: PBS buffer, pH 6.5, aqueous buffer, thermodynamic from solid, read-out: Solubility (pH 6.5, μg/mL). On the procedure:
Representative Compounds of the Disclosure were tested in a kinetic solubility assay in PBS buffer. PBS buffer was prepared by dissolving 4.86 g of potassium dihydrogen phosphate and 5.09 g of disodium hydrogen phosphate dodecahydrate in 1 L of ultrapure water (final pH 6.5). 0.5 mg of test sample was dissolved in 1 mL of methanol and the stock solution was transferred into 2 mL EP tube, and evaporated at 50° C. for 3 h. To the tube was added 1 mL of PBS buffer and the mixture was stirred and shaken for 1-2 h. The solution was allowed to stand overnight and then filtered before HPLC analysis. Another 1.5 mg of the sample was dissolved in 3 mL of methanol to prepare a calibration curve with a series of concentration range of 5-500 μM. The solubility of each sample was determined by the measured peak area in HPLC.

Chain of Mcl-1 protein (residues 171-323) (Q07820 171-323): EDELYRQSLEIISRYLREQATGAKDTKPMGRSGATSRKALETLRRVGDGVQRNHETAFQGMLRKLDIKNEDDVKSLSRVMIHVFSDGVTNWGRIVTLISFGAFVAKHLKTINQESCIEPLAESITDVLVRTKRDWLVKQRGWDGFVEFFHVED

As for `Cc1c(C(=O)O)n2c3ccc(Cl)c(c13)-c1c(nn(C)c1C)CSCc1cc(n(C)n1)CSc1cc(c3ccc(F)cc3c1)OCCC2` (atropisomer, axis not shown) [Cpd. No. 15, (R)-(Z)-1^5-chloro-9^6-fluoro-1^3,2^1,2^5,6^1-tetramethyl-1^1H,2^1H,6^1E-10-oxa-4,8-dithia-1(4,1)-indola-2(4,3),6(3,5)-dipyrazola-9(3,1)-naphthalenacyclotridecaphane-1^2-carboxylic acid], the IC50 was found to be 2 nM in data set [1]; 5.4 nM in the data set on MV-4-11 cells (read-out: MV-4-11 IC50 (5% FBS), MV-4-11 cells, 5% FBS, 24 hrs, CCK-8); 52 nM in the data set on OPM-2 cells (24 hours); 19 nM in the data set with NCI-H929 cells (24 hrs). Further, in data set [2], the “Human Liver Microsome Clint (μL/min/mg protein)” value is given as less than 2.8 μL/min/mg protein. For the same molecule, the “Mouse Liver Microsome Clint (μL/min/mg protein)” value (shortened to “Mouse Liver Microsome Clint”) in data set [3] is 28.0 μL/min/mg protein. In addition, the “Rat Liver Microsome Clint (μL/min/mg protein)” value in data set [4] amounted to 19.6 μL/min/mg protein.
Turning to `CNC(=O)Cn1nc(C)c2c1CSCc1cc(n(C)n1)CSc1cc(c3ccccc3c1)OCCCn1c(C(=O)O)c(C)c3c-2c(Cl)ccc31` [Cpd. No. 26, (Z)-1^5-chloro-1^3,2^3,6^1-trimethyl-2^1-(2-(methylamino)-2-oxoethyl)-1^1H,2^1H,6^1H-10-oxa-4,8-dithia-1(4,1)-indola-2(4,5),6(3,5)-dipyrazola-9(3,1)-naphthalenacyclotridecaphane-1^2-carboxylic acid], the IC50 came to 14 nM in data set [1]; 992 nM in the data set with OPM-2 cells (Homo sapiens, OPM-2, 24 h); 300 nM with NCI-H929 cells (Homo sapiens, NCI-H929, 24 h). For the same molecule, the microsomal CLint at 5 μM in data set [2] was determined as 12.8 µL/min/mg; in data set [3] it was 41.2 µL/min/mg; in data set [4] it was 14.2 µL/min/mg. Also, the solubility in data set [5] is less than 1 µg/mL.
On to `Cc1c(C(=O)O)n2c3ccc(Cl)c(c13)-c1c(nn(C)c1C(F)F)CN(S(C)(=O)=O)Cc1cc(n(C)n1)CSc1cc(c3ccc(F)cc3c1)OCCC2` [Cpd. No. 45, (Z)-1^5-chloro-2^5-(difluoromethyl)-9^6-fluoro-1^3,2^1,6^1-trimethyl-4-(methylsulfonyl)-1^1H,2^1H,6^1H-10-oxa-8-thia-4-aza-1(4,1)-indola-2(4,3),6(3,5)-dipyrazola-9(3,1)-naphthalenacyclotridecaphane-1^2-carboxylic acid], for which the IC50 in data set [1] is 16 nM; with OPM-2 cells (Homo sapiens, OPM-2, 24 h), 350 nM; in the data set with NCI-H929 cells (Homo sapiens, NCI-H929, 24 h), 253 nM. The microsomal CLint at 5 μM in data set [2] was less than 2.8 µL/min/mg; in data set [3], 21.4 µL/min/mg; in data set [4] it was 12.6 µL/min/mg. The solubility in data set [5] was determined as 94 µg/mL (≈ 119 µM).
Take `Cc1c(C(=O)O)n2c3ccc(C#N)c(c13)-c1c(nn(C)c1C)CSCc1cc(n(C)n1)CSc1cc(c3ccc(F)cc3c1)OCCC2` [Cpd. No. 20, (Z)-1^5-cyano-9^6-fluoro-1^3,2^1,2^5,6^1-tetramethyl-1^1H-1,2^1H,6^1H-10-oxa-4,8-dithia-1(4,1)-indola-2(4,3),6(3,5)-dipyrazola-9(3,1)-naphthalenacyclotridecaphane-1^2-carboxylic acid]: the IC50 in data set [1] turned out to be 14 nM; in the data set with MV-4-11 cells (Homo sapiens, MV4-11, 24 h, read-out: MV-4-11 IC50 (5% FBS, nM), MV-4-11 cells, 5% FBS, 24 hrs, CCK-8), 45 nM; in the data set on OPM-2 cells (Homo sapiens, OPM-2, 24 h) it was 613 nM; in the data set on NCI-H929 cells (Homo sapiens, NCI-H929, 24 h) it was 611 nM.
Turning to `Cc1c(C(=O)O)n2c3ccc(Cl)c(c13)-c1c(nn3c1COCC3)CSCc1cc(n(C)n1)CSc1cc(c3ccc(F)cc3c1)OCCC2` [Cpd. No. 4, (Z)-1^5-chloro-9^6-fluoro-1^3,6^1-dimethyl-2^6,2^7-dihydro-1^1H,24H,6^1H-10-oxa-4,8-dithia-2(3,2)-pyrazolo[5,1-c][1,4]oxazina-1(4,1)-indola-6(3,5)-pyrazola-9(3,1)-naphthalenacyclotridecaphane-1^2-carboxylic acid], the IC50 came to 14 nM in data set [1]; 438 nM in the data set on OPM-2 cells (Homo sapiens, OPM-2, 24 h); 49 nM in the data set with NCI-H929 cells (Homo sapiens, NCI-H929, 24 h). The microsomal CLint at 5 μM in data set [2] was 13.8 µL/min/mg; in data set [3] it was 41.2 µL/min/mg; in data set [4] it was 19.8 µL/min/mg. The solubility in data set [5] is less than 1 µg/mL.
Consider `COCCn1nc2c(c1C)-c1c(Cl)ccc3c1c(C)c(C(=O)O)n3CCCOc1cc(cc3ccccc13)SCc1cc(nn1C)CSC2` [Cpd. No. 11, (Z)-1^5-chloro-2^1-(2-methoxyethyl)-1^3,2^5,6^1-trimethyl-1^1H,2^1H,6^1H-10-oxa-4,8-dithia-1(4,1)-indola-2(4,3),6(3,5)-dipyrazola-9(3,1)-naphthalenacyclotridecaphane-1^2-carboxylic acid], for which the IC50 worked out at 15 nM in data set [1]; 171 nM in the data set with OPM-2 cells (Homo sapiens, OPM-2, 24 h); 68 nM with NCI-H929 cells (Homo sapiens, NCI-H929, 24 h). Moreover, the microsomal CLint at 5 μM in data set [2] is 39.6 µL/min/mg; in data set [3], 145 µL/min/mg; in data set [4], 35.4 µL/min/mg. Moreover, in data set [5], the solubility is less than 1 µg/mL.
As to `Cc1c(C(=O)O)n2c3ccc(Cl)c(c13)-c1c(nn(C)c1C)CSCc1cc(n(C)n1)CSc1cc(c3ccccc3c1)OCCC2` (atropisomer, axis not shown) [Cpd. No. 7, (S)-(Z)-1^5-chloro-1^3,2^1,2^5,6^1-tetramethyl-1^1H,2^1H,6^111-10-oxa-4,8-dithia-1(4,1)-indola-2(4,3),6(3,5)-dipyrazola-9(3,1)-naphthalenacyclotridecaphane-1^2-carboxylic acid], the IC50 was more than 1000 nM in data set [1], more than 10000 nM in the data set on OPM-2 cells (24 hours) and 7440 nM in the data set on NCI-H929 cells (24 hrs). The “Human Liver Microsome Clint (μL/min/mg protein)” value in data set [2] was 38.0 μL/min/mg protein. Further, the “Mouse Liver Microsome Clint” value in data set [3] was determined as 245 μL/min/mg protein. The “Rat Liver Microsome Clint (μL/min/mg protein)” value in data set [4] came out at 111 μL/min/mg protein. In data set [5] (PBS buffer pH 6.5), the “Solubility (pH 6.5, μg/mL)” value stood at 6 μg/mL.
On to `Cc1c(C(=O)O)n2c3ccc(Cl)c(c13)-c1c(nn(C)c1C)CN(S(C)(=O)=O)Cc1cc(n(C)n1)CSc1cc(c3ccc(F)cc3c1)OCCC2` [Cpd. No. 32, (Z)-1^5-chloro-9^6-fluoro-1^3,2^1,2^5,6^1-tetramethyl-4-(methylsulfonyl)-1^1-H,2^1H, 6′H-10-oxa-8-thia-4-aza-1(4,1)-indola-2(4,3),6(3,5)-dipyrazola-9(3,1)-naphthalenacyclotridecaphane-1^2-carboxylic acid], for which the IC50 in data set [1] worked out at 36 nM; in the data set with OPM-2 cells (24 hours) it was 542 nM; with NCI-H929 cells (24 hrs) it was 213 nM. The microsomal CLint at 5 μM came out at 4.4 µL/min/mg in data set [2] and 10.8 µL/min/mg in data set [4]. In data set [3], the “Mouse Liver Microsome Clint” value was found to be 35.0 μL/min/mg protein. Further, the solubility in data set [5] is more than 400 µg/mL.
As to `Cc1c(C(=O)O)n2c3ccc(Cl)c(c13)-c1c(nn(C)c1C)CN(Cc1ncco1)Cc1cc(n(C)n1)CSc1cc(c3ccc(F)cc3c1)OCCC2` [Cpd. No. 52, (Z)-1^5-chloro-9^6-fluoro-1^3,2^1,2^5,6^1-tetramethyl-4-(oxazol-2-ylmethyl)-1^1H,2^1H,6^1H-10-oxa-8-thia-4-aza-1(4,1)-indola-2(4,3),6(3,5)-dipyrazola-9(3,1)-naphthalenacyclotridecaphane-1^2-carboxylic acid], the IC50 in data set [1] came to 21 nM; with OPM-2 cells (Homo sapiens, OPM-2, 24 h), 699 nM; in the data set on NCI-H929 cells (Homo sapiens, NCI-H929, 24 h), 87 nM. Further, the microsomal CLint at 5 μM in data set [2] worked out at 28.4 µL/min/mg; in data set [3] it was 53 µL/min/mg; in data set [4], 29.8 µL/min/mg. The solubility in data set [5] came out at 4 µg/mL (≈ 5.3 µM).
